Experiments:
[1] = molecular target: T1, Peroxisome proliferator-activated receptor gamma (Homo sapiens, UniProt P37231)
T1 sequence (P37231 whole entry): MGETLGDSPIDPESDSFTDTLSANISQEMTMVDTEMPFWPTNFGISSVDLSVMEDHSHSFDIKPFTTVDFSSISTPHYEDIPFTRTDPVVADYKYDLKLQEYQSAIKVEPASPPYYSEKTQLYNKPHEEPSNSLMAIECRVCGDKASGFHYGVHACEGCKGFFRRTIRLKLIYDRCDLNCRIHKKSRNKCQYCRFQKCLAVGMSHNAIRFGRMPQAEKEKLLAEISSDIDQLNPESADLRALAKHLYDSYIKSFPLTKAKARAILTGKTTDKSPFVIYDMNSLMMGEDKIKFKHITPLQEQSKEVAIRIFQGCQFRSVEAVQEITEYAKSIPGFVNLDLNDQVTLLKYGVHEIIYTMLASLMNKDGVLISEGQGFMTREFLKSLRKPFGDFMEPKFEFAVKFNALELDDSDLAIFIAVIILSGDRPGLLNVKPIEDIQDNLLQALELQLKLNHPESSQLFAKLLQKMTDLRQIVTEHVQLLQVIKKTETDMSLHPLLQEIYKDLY
Description: Inhibitory concentration against human peroxisome proliferator activated receptor gamma in SPA assay

[2] = molecular target: T2, Peroxisome proliferator-activated receptor alpha (Homo sapiens, UniProt Q07869); test: Inhibitory concentration against human peroxisome proliferator activated receptor alpha in SPA assay
T2 sequence (Q07869 whole entry): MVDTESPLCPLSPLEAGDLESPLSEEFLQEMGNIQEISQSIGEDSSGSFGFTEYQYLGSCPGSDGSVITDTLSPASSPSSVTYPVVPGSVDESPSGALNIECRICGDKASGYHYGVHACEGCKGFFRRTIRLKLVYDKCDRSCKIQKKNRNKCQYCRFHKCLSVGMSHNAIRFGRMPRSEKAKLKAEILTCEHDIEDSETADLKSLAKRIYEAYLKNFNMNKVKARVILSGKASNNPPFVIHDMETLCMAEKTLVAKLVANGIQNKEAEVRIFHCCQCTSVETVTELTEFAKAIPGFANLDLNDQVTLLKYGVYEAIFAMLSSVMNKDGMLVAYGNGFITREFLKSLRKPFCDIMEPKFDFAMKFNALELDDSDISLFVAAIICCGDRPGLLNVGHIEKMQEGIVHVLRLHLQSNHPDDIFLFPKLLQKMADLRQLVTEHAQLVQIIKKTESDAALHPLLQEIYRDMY

[3] = Bioavailability; format: ADME, organism-based; conditions: eutheria, in vivo
[4] = molecular target: T1, Peroxisome proliferator-activated receptor gamma; test: Effective agonist concentration for human PPAR gamma Gal4 construct in transactivation assay; format: functional
[5] = Half life at normal dose was determined; format: ADME
[6] = Area under curve at normal dose was determined; format: ADME

SMILES | IC50 [1] | IC50 [2] | bioavailability [3] | EC50 [4] | half-life [5] | AUC [6]
COc1ccc2c(c1)c(Oc1cccc(C(F)(F)F)c1)c(C(=O)O)n2-c1ccc(C(C)(C)C)cc1 | 39 nM | > 15000 nM | – | – | – | –
CC(C)c1cccc(-n2c(C(=O)O)c(Oc3cccc(O)c3)c3ccccc32)c1 | 102 nM | > 50000 nM | – | – | – | –
CC(C)(C)c1ccc(-n2c(C(=O)O)c(Oc3cccc(C(F)(F)F)c3)c3cc(Oc4cc(C(F)(F)F)ccn4)ccc32)cc1 | – | – | 2.4% | 6 nM | 48 min | –
CC(C)(C)c1ccc(-n2c(C(=O)O)c(Oc3cccc(-c4cc(C(F)(F)F)c[nH]4)c3)c3ccc(Cl)nc32)cc1 | 58 nM | > 50000 nM | – | 95 nM | – | –
CC(C)c1cccc(-n2c(C(=O)O)c(Oc3cccc(C(F)(F)F)c3)c3ccccc32)c1 | 60 nM | > 15000 nM | – | – | – | –
CC(C)(C)c1ccc(-n2c(C(=O)O)c(Oc3cccc(C(F)(F)F)c3)c3ccc(Cl)nc32)cc1 | 21 nM | > 15000 nM | – | 176 nM | – | –
CC(C)(C)c1ccc(-n2c(C(=O)O)c(Oc3cccc(S(C)(=O)=O)c3)c3ccc(Cl)nc32)cc1 | 202 nM | > 50000 nM | – | – | – | –
CC(C)(C)c1ccc(-n2c(C(=O)O)c(Oc3cccc(C(F)(F)F)c3)c3cccnc32)cc1 | 75 nM | > 50000 nM | – | 464 nM | – | –
CC(C)(C)c1ccc(-n2c(C(=O)O)c(Oc3ccc(OC(F)(F)F)cc3)c3ccccc32)cc1 | 49 nM | 3580 nM | – | – | – | –
COc1ccc(-n2c(C(=O)O)c(Oc3cccc(C(F)(F)F)c3)c3ccccc32)cc1 | 115 nM | > 50000 nM | – | 334 nM | – | –
CC(C)c1cccc(Oc2c(C(=O)O)n(-c3ccc(C(C)(C)C)cc3)c3cc(Cl)ccc23)c1 | 19 nM | > 15000 nM | – | – | – | –
CC(C)(C)c1ccc(-n2c(C(=O)O)c(Oc3ccc(Cl)cc3)c3ccc(OC(F)(F)F)cc32)cc1 | 298 nM | > 15000 nM | – | 411 nM | – | –
CC(C)c1cccc(-n2c(C(=O)O)c(Oc3ccc(C(F)(F)F)cc3)c3ccccc32)c1 | 120 nM | > 15000 nM | – | – | – | –
CC(C)(C)c1ccc(-n2c(C(=O)O)c(Oc3cccc(C(F)(F)F)c3)c3cc(O)ccc32)cc1 | 318 nM | > 50000 nM | – | – | – | –
CC(C)(C)c1ccc(-n2c(C(=O)O)c(Oc3cccc(C(F)(F)F)c3)c3ccc(Cl)cc32)cc1 | 27 nM | > 15000 nM | – | 106 nM | – | –
CC(C)COc1ccc2c(c1)c(Oc1cccc(C(F)(F)F)c1)c(C(=O)O)n2-c1ccc(C(C)(C)C)cc1 | 18 nM | 4150 nM | – | 91 nM | – | –
CC(C)(C)c1ccc(-n2c(C(=O)O)c(Oc3ccc(Cl)c(C(F)(F)F)c3)c3cc(Cl)ccc32)cc1 | 13 nM | 4480 nM | – | – | – | –
CC(C)(C)c1ccc(-n2c(C(=O)O)c(Oc3cccc(C(F)(F)F)c3)c3cc(Oc4ccccn4)ccc32)cc1 | – | – | – | 126 nM | – | –
CC(C)(C)c1ccc(-n2c(C(=O)O)c(Oc3ccc(-c4cc(C(F)(F)F)c[nH]4)cc3)c3cccnc32)cc1 | 251 nM | > 50000 nM | – | 34 nM | – | –
CCOc1ccc2c(c1)c(Oc1cccc(C(F)(F)F)c1)c(C(=O)O)n2-c1ccc(C(C)(C)C)cc1 | 18 nM | 6270 nM | – | 34 nM | – | –
CCOc1cccc(Oc2c(C(=O)O)n(-c3ccc(C(C)(C)C)cc3)c3ccccc23)c1 | 49 nM | > 50000 nM | – | 233 nM | – | –
CC(C)(C)c1ccc(-n2c(C(=O)O)c(Oc3cc(C(F)(F)F)cc(C(F)(F)F)c3)c3cc(Cl)ccc32)cc1 | 83 nM | > 15000 nM | – | – | – | –
O=C(O)c1c(Sc2ccccc2)c2cc(Cl)ccc2n1Cc1ccc(Cl)cc1 | – | > 15000 nM | – | – | – | –
O=C(O)c1c(Oc2cccc(C(F)(F)F)c2)c2ccccc2n1-c1ccc(C(F)(F)F)cc1 | 107 nM | 3200 nM | – | – | – | –
CC(C)(C)c1ccc(-n2c(C(=O)O)c(Oc3cccc(C(F)(F)F)c3)c3ccccc32)cc1 | 12 nM | 10600 nM | – | 13 nM | 30 min | 9.19 µM·h
COc1ccc2c(Oc3cccc(C(F)(F)F)c3)c(C(=O)O)n(-c3ccc(C(C)(C)C)cc3)c2n1 | 100 nM | > 15000 nM | – | 299 nM | – | –
CC(C)(C)c1ccc(-n2c(C(=O)O)c(Oc3cccc(O)c3)c3ccccc32)cc1 | 78 nM | > 50000 nM | – | 161 nM | – | –
CC(C)(C)c1ccc(-n2c(C(=O)O)c(Oc3cccc(C(F)(F)F)c3)c3cc(Cl)ccc32)cc1 | 17 nM | > 15000 nM | – | 136 nM | – | –
CC(C)(C)c1ccc(-n2c(C(=O)O)c(Oc3cccc(C(F)(F)F)c3)c3cc(Oc4cc(Cl)c[nH]4)ccc32)cc1 | 2 nM | > 15000 nM | 9.8% | 2 nM | 108 min | 0.3 µM·h
COc1cccc(Oc2c(C(=O)O)n(-c3ccc(C(C)(C)C)cc3)c3nc(Cl)ccc23)c1 | 104 nM | > 15000 nM | – | 755 nM | – | –

From ChEMBL document CHEMBL1143644, “Synthesis and biological activities of novel aryl indole-2-carboxylic acid analogs as PPARgamma partial agonists” (Bioorg Med Chem Lett, 2005)
